Source: ChEMBL document CHEMBL3797159, “The discovery and the structural basis of an imidazo[4,5-b]pyridine-based p21-activated kinase 4 inhibitor” (Bioorg Med Chem Lett, 2016)
The source made the active and inactive calls. No cut-off for these calls is given here.

Tests used:
[1] = molecular target: DNA-dependent protein kinase catalytic subunit (Homo sapiens) (UniProt P78527); assay: Inhibition of human DNA-PK by radiometric assay
[2] = molecular target: T1, Serine/threonine-protein kinase PAK 4 (Homo sapiens, UniProt O96013); details: 50 uM
Target sequence in this assay (O96013 whole entry, looked up, the tested form may be a part): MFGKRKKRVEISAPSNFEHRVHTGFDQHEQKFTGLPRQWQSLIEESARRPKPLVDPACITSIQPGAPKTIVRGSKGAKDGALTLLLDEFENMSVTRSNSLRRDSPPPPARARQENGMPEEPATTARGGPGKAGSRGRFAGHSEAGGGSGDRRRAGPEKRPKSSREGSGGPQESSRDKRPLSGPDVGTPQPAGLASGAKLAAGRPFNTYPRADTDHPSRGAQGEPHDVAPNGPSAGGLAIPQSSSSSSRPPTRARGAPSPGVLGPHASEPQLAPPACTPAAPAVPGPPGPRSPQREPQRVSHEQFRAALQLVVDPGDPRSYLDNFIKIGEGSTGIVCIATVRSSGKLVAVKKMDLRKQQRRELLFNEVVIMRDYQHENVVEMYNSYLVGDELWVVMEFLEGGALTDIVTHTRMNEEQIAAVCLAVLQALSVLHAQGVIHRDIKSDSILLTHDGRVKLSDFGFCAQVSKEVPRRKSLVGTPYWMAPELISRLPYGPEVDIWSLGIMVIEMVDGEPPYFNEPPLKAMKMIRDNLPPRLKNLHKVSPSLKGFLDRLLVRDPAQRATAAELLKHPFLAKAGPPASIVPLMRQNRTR
Description: Binding affinity to PAK4 (unknown origin) assessed as change in melting temperature at 50 uM by circular dichroism analysis

[3] = molecular target: CDK4/Cyclin D3 (Homo sapiens) (UniProt P11802+P30281); assay: Inhibition of human recombinant CDK4/Cyclin D3 expressed in sf21 cells using Rb (773 to 928 residues) as substrate by radiometric assay in presence of gamma[32P]ATP
[4] = molecular target: T2, Aurora kinase C (Homo sapiens) (UniProt Q9UQB9); assay: Inhibition of human Aurora-C by radiometric assay
T2 sequence (whole entry): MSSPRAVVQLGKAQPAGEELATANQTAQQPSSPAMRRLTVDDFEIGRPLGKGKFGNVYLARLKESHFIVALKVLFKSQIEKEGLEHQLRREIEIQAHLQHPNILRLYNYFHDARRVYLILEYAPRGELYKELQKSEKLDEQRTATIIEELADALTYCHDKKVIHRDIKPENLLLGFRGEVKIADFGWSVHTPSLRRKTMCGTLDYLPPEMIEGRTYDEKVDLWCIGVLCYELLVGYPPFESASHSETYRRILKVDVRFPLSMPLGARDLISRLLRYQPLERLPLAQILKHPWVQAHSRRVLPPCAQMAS

[5] = molecular target: T1, Serine/threonine-protein kinase PAK 4; assay: Inhibition of human PAK4 using myelin basic protein as substrate incubated for 40 mins by scintillation counting method in presence of gamma[33P]ATP
Target sequence in this assay (O96013 whole entry, the tested form may be a part): as the sequence (O96013 whole entry, looked up, the tested form may be a part) above

[6] = molecular target: Aurora kinase B (Homo sapiens) (UniProt Q96GD4); assay: Inhibition of human recombinant Aurora-B expressed in sf9 cells using kemptide as substrate by radiometric assay in presence of gamma[32P]ATP
[7] = Solubility of compound; format: physicochemical
[8] = molecular target: T3, Dual specificity tyrosine-phosphorylation-regulated kinase 2 (Homo sapiens) (UniProt Q92630); assay: Inhibition of human DYRK2 by radiometric assay
T3 sequence (whole entry): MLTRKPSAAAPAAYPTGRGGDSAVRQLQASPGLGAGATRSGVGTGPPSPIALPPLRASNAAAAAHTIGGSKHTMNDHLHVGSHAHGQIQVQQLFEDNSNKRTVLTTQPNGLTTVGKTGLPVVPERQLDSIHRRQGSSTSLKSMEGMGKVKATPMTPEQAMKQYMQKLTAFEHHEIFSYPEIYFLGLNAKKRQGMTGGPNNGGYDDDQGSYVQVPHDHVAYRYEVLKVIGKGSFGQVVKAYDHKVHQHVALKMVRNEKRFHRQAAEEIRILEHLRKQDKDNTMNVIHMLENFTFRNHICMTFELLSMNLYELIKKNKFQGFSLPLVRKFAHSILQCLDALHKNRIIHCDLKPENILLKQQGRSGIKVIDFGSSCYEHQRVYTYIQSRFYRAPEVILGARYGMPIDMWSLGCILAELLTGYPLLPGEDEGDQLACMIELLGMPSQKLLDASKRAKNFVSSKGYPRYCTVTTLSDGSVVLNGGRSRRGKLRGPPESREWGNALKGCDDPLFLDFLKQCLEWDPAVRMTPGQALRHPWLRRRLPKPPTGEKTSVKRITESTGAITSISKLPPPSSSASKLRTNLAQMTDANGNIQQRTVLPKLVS

[9] = molecular target: T1, Serine/threonine-protein kinase PAK 4; assay: Binding affinity to recombinant human N-terminal His6-tagged PAK4 kinase domain (300 to 591 residues) expressed in Escherichia coli BL21(DE3) cells at 50 uM by circular dichroism analysis
Target sequence in this assay (O96013 whole entry, looked up, the tested form may be a part): as the sequence (O96013 whole entry, looked up, the tested form may be a part) above

Chain of Aurora kinase B (Homo sapiens) (Q96GD4 whole entry): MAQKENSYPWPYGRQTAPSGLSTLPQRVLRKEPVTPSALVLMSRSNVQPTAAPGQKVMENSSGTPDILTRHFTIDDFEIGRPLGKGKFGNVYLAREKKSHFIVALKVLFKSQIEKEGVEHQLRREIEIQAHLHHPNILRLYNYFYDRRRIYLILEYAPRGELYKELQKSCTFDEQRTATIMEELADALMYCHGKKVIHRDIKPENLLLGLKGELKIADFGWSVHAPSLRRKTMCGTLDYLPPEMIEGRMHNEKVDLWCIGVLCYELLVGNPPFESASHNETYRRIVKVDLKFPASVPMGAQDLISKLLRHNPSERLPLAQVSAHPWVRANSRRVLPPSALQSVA
Chain of DNA-dependent protein kinase catalytic subunit (Homo sapiens) (P78527 whole entry): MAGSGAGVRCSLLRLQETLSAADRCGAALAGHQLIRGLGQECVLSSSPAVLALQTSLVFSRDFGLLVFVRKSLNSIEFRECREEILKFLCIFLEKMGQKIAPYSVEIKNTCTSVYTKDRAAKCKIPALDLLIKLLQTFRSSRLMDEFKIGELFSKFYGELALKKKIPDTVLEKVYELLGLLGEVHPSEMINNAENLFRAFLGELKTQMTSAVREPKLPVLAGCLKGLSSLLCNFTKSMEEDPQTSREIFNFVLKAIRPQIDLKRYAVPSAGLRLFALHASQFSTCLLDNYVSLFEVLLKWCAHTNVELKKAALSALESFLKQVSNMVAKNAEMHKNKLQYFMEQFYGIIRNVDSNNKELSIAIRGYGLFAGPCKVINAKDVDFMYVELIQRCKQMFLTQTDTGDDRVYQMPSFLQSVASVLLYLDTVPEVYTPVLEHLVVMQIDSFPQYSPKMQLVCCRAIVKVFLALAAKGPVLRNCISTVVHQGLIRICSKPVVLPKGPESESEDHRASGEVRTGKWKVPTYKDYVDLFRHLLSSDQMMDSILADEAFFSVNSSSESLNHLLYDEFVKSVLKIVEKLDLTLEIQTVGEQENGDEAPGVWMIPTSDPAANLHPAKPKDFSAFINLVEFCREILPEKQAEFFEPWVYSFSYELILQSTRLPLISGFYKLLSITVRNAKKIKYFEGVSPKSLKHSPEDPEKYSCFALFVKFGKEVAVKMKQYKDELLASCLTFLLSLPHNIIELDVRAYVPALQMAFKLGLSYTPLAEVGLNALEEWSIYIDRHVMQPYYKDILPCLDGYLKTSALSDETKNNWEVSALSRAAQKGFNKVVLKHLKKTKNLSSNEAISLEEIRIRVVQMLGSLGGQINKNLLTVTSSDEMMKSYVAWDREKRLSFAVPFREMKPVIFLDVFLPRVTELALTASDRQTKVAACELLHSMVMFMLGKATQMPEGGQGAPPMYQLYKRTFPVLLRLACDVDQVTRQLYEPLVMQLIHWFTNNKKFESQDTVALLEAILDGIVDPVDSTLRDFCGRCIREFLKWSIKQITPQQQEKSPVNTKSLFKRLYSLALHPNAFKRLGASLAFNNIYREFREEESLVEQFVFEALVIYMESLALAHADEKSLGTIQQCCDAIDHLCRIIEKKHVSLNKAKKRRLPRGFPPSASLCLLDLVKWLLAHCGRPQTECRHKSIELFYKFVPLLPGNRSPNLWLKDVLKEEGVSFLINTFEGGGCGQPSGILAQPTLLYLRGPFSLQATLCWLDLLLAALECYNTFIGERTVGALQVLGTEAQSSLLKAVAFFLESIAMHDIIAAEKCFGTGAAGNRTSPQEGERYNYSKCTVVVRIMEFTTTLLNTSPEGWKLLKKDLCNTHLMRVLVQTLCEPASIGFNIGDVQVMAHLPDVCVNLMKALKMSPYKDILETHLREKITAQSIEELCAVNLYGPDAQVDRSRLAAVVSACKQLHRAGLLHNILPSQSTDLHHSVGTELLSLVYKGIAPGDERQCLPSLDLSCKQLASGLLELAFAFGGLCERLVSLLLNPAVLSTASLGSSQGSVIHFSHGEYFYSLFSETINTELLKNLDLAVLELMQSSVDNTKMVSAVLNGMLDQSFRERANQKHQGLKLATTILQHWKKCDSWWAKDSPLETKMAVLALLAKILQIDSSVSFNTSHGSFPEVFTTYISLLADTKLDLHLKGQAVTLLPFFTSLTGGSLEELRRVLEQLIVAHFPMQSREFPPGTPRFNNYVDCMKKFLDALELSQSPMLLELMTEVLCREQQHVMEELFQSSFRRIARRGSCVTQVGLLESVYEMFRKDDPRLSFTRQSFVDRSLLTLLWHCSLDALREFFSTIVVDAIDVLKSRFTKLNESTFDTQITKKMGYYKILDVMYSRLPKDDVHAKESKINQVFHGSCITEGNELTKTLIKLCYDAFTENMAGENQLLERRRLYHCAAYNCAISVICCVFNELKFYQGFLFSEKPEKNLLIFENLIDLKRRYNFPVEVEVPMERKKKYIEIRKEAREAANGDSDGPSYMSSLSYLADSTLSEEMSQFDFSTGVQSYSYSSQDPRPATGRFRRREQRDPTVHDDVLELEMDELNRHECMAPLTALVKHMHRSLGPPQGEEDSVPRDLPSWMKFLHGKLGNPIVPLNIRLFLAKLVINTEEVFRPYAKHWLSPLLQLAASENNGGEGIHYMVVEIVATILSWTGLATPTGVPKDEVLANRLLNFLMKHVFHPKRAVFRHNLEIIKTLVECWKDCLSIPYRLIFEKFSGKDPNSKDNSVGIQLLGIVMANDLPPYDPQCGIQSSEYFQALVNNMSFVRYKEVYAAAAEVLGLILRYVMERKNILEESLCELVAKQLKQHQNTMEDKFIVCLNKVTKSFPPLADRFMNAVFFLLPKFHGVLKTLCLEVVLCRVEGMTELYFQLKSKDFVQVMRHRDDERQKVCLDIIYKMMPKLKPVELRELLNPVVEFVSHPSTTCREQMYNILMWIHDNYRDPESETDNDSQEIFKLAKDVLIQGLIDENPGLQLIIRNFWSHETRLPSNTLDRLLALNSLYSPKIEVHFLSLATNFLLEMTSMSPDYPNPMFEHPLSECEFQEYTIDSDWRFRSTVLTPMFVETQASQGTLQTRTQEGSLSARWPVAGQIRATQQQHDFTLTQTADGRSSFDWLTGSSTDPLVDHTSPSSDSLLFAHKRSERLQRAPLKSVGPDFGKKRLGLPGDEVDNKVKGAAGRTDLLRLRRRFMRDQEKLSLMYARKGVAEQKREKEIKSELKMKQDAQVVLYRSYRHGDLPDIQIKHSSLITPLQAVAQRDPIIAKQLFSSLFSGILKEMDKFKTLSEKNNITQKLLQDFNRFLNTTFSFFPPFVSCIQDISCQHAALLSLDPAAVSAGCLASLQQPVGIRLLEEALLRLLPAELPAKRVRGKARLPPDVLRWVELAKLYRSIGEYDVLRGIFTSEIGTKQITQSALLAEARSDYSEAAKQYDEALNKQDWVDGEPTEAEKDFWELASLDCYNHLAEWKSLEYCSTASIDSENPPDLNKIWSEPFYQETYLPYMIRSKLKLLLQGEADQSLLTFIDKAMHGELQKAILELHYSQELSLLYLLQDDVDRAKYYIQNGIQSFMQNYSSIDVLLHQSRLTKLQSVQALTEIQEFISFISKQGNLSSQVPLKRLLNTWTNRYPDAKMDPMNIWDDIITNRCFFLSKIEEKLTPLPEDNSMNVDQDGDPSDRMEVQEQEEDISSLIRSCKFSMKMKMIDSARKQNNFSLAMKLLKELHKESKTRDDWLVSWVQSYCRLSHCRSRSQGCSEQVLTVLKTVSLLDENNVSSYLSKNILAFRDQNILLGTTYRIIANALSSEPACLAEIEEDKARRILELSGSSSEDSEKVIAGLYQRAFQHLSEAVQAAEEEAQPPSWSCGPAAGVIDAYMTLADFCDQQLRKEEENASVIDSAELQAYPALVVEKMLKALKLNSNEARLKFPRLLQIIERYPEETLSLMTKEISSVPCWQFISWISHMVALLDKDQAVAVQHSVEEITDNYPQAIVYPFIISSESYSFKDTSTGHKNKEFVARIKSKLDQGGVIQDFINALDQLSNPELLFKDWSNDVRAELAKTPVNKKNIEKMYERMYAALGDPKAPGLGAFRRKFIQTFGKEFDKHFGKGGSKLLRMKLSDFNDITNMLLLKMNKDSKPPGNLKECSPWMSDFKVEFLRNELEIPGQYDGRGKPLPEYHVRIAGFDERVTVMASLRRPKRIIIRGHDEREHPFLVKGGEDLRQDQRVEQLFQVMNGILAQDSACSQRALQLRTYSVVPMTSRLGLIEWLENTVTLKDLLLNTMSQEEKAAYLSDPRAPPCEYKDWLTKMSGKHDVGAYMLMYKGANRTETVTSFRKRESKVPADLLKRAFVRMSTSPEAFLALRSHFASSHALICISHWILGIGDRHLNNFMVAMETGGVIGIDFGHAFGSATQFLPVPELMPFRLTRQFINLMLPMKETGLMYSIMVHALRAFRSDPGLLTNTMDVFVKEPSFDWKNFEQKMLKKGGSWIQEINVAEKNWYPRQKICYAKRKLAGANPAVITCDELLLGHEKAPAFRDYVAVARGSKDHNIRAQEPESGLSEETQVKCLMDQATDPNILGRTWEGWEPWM

CC(C)c1nn(C)cc1-c1nc2cc(Br)cnc2[nH]1
inhibition [1]: inactive
Tm [2]: 48 °C
inhibition [3]: inactive
inhibition [4]: Active
IC50 [5]: 8.7 µM
inhibition [6]: Active
solubility [7]: < 100 µM
inhibition [8]: inactive

COc1nc(NCCc2c[nH]c3ccccc23)nc(Nc2ccc3[nH]ncc3c2)n1
ΔTm [9]: 6 °C

Cc1nc(Nc2n[nH]c3c2CN(C(=O)N[C@H](CN(C)C)c2ccccc2)C3(C)C)c2sccc2n1
ΔTm [9]: 16 °C
